Reference: ChEMBL document CHEMBL4602649, “Identification of 6'-β-fluoro-homoaristeromycin as a potent inhibitor of chikungunya virus replication” (Eur J Med Chem, 2020)
Active and inactive are the calls of the source. The calls are words filed in the database; no cut-off is given here.

How the values were obtained:
Vero C1008 = assay: Cytotoxicity against African green monkey Vero E6 cells assessed as reduction in cell viability measured after 96 hrs by MTS assay; assay type: cell-based; conditions: chlorocebus sabaeus, vero c1008, 96 h
[1] = test system: Middle East respiratory syndrome-related coronavirus; assay: Antiviral activity against MERS-CoV EMC/2012 infected in African green monkey Vero cells pretreated with compound followed by viral infection and measured at 72 hrs post-infection by MTS assay; assay type: functional, organism-based
Zika virus = assay: Antiviral activity against ZIKV SL0612 infected in African green monkey Vero CCL81 cells pretreated with compound followed by viral infection and measured at 96 hrs post-infection by MTS assay; assay type: functional, organism-based
SARS-CoV = assay: Antiviral activity against SARS-CoV Frankfurt1 infected in African green monkey Vero E6 cells pretreated with compound followed by viral infection and measured at 72 hrs post-infection by MTS assay; assay type: functional, organism-based; conditions: Severe acute respiratory syndrome-related coronavirus; Frankfurt 1; Vero C1008
Chikungunya virus = assay: Antiviral activity against CHIKV LS3 infected in African green monkey Vero E6 cells assessed as reduction in virus-induced cytopathic effect pretreated with compound followed by viral infection and measured at 96 hrs post-infection by MTS assay; assay type: functional, organism-based; conditions: LS3, Vero C1008
Adenosylhomocysteinase = Adenosylhomocysteinase (Homo sapiens, UniProt P23526); assay: Inhibition of human placental SAH hydrolase expressed in Escherichia coli JM109 using SAH as substrate preincubated for 10 mins followed by SAH addition and measured after 20 mins by DNTB reagent-based spectrophotometric method
Sequence of Adenosylhomocysteinase (P23526 whole entry): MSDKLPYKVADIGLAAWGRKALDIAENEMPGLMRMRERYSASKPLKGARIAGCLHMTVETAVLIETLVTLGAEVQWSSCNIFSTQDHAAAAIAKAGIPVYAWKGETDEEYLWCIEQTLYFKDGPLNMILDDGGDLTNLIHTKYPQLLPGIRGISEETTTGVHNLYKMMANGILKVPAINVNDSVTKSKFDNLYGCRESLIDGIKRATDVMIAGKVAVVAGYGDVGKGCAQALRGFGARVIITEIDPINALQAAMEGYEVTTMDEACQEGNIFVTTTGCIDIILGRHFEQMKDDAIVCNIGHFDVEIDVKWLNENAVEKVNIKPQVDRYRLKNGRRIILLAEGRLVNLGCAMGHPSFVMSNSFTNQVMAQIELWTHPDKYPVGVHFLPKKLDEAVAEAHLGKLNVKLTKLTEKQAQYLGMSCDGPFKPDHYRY

[2] = Selectivity index, ratio of CC50 for African green monkey Vero E6 cells to EC50 for antiviral activity against CHIKV-LS3 infected in African green monkey Vero E6 cells; assay type: toxicity, Vero C1008; conditions: read-out: Ratio CC50/EC50

With `Nc1ncnc2c1ncn2[C@H]1[C@H](O)[C@H](O)[C@@H](CO)C1(F)F` the CC50 (Vero C1008) was > 1.25 µM, the Activity [1] was “Active” and the Activity (Zika virus) was “Active”. The Activity (SARS-CoV) was “Active” and the EC50 (Chikungunya virus) was 0.13 µM.

With `Nc1ncnc2c1ncn2[C@H]1[C@H](O)[C@H](O)[C@@H](CCO)C1(F)F` the CC50 (Vero C1008) was > 25 µM, the Activity [1] was “inactive” and the Activity (Zika virus) was “inactive”. For the same compound, the Activity (SARS-CoV) was “inactive”, the IC50 (Adenosylhomocysteinase) was 2.03 µM and the EC50 (Chikungunya virus) was > 100 µM.

In the case of `CNc1ncnc2c1ncn2[C@H]1[C@H](O)[C@H](O)[C@@H](CCO)C1(F)F`, the CC50 (Vero C1008) is reported as > 100 µM, the Activity [1] is reported as “inactive” and the Activity (Zika virus) is reported as “inactive”. For the same compound, the Activity (SARS-CoV) was “inactive”, the IC50 (Adenosylhomocysteinase) was 3.05 µM and the EC50 (Chikungunya virus) was > 100 µM.

For `Nc1ncnc2c1ncn2[C@H]1[C@H](O)[C@H](O)[C@@H](CCO)[C@H]1F`, the CC50 (Vero C1008) was > 250 µM, the Activity [1] was “inactive” and the Activity (Zika virus) was “inactive”. For the same compound, the Activity (SARS-CoV) was “inactive”, the IC50 (Adenosylhomocysteinase) was 0.36 µM and the EC50 (Chikungunya virus) was 0.12 µM. The selectivity ratio [2] was > 2080.

In the case of `OCC[C@@H]1[C@@H](O)[C@@H](O)[C@H](n2cnc3c(O)ncnc32)[C@@H]1F`, the CC50 (Vero C1008) is reported as > 100 µM, the Activity [1] is reported as “inactive” and the Activity (Zika virus) is reported as “inactive”. The Activity (SARS-CoV) was “inactive”, the IC50 (Adenosylhomocysteinase) was > 100 µM and the EC50 (Chikungunya virus) was > 100 µM.

In the case of `CNc1ncnc2c1ncn2[C@H]1[C@H](O)[C@H](O)[C@@H](CCO)[C@H]1F`, the CC50 (Vero C1008) is reported as > 100 µM, the Activity [1] is reported as “inactive” and the Activity (Zika virus) is reported as “inactive”. For the same compound, the Activity (SARS-CoV) was “inactive”, the IC50 (Adenosylhomocysteinase) was 0.37 µM and the EC50 (Chikungunya virus) was > 100 µM.

With `Nc1ncnc2c1ncn2[C@H]1[C@H](O)[C@H](O)[C@@H](CO)[C@H]1F` the CC50 (Vero C1008) was > 100 µM, the Activity [1] was “Active” and the Activity (Zika virus) was “Active”. The Activity (SARS-CoV) was “Active” and the EC50 (Chikungunya virus) was > 100 µM.
